In PMC7772889, “Integrating biokinetics and in vitro studies to evaluate developmental neurotoxicity induced by chlorpyrifos in human iPSC-derived neural stem cells undergoing differentiation towards neuronal and glial cells” (Reproductive Toxicology (Elmsford, N.y.), 2020):

What was measured:
[1] = system: CYP and GST gene expression in hiPSC-derived NSCs undergoing differentiation; test: qPCR analysis of CYP and GST gene expression after CPF treatment; format: cell-based, human; conditions: 21 μM CPF
Method: Analysis of gene expression by qPCR was performed in hiPSC-derived NSCs undergoing differentiation upon single and repeated treatment with 21 μM CPF or solvent control (0.1 % DMSO), collecting samples after 1, 3, 6 and 24 h (as shown in Fig. 2). RNA was isolated using the RNAqueous®-Micro Kit (ThermoFisher) according to manufacturer's instructions, and 500 ng of total RNA was reverse transcribed by using the High Capacity cDNA Reverse Transcription Kit (as directed, ThermoFisher).
qPCR reactions were run in duplicate using TaqMan® Gene Expression Master Mix (ThermoFisher) and the TaqMan gene expression assays shown in Table 1 (all from ThermoFisher).
Fluorescent emission was recorded in real-time using the ABI PRISM Sequence Detection System 7900HT (ThermoFisher). PCR amplification conditions consisted of 45 cycles with primers annealing at 60 °C. Relative RNA quantities were normalized to the reference genes GAPDH and Bactin and untreated cells were used to set calibrating conditions (ΔΔCt Method). Three biological replicates were performed.

[2] = cited from earlier work

CCOP(=S)(OCC)Oc1nc(Cl)c(Cl)cc1Cl [CPF, Chlorpyrifos]
CYP-2C9 gene expression ([1]; first day of treatment): tendency towards upregulation
GST gene expression ([1]; first day of treatment): did not change
CYP-1A1 gene expression ([1]; first day of treatment, after 3 h, 6 h and 24 h): Up-regulation
GST-A4 gene expression ([1]; first day, after 6 h treatment): modest decrease
CYP gene expression ([1]; repeated treatment): did not significantly change
GST gene expression (all analysed GST genes) ([1]; repeated treatment): significant downregulation
CYP-2C19 gene expression ([1]; repeated treatment, after 1 h): transient upregulation
vapour pressure ([2]; at 25 °C): 2.02 × 10^−5 mm Hg
log Kow, octanol/water partition coefficient [2]: 4.96
